Reference: US20240351986A1, “UREA COMPOUND CONTAINING 2-HETEROAROMATIC RING SUBSTITUTION, PREPARATION METHOD THEREFOR AND USE THEREOF” (SHANGHAI INSTITUTE OF MATERIA MEDICA, CHINESE ACADEMY OF …, priority 2021, published 2024)
Blank lines part the entries; values can stand above or below the compound they belong to.

Target: T1, Recombinant human CDK9/cyclin T1 (Homo sapiens, UniProt P50750)
T1 construct: purchased Carna bioscience 04-110
Experiment: CDK9 enzyme inhibitory activity (ADP-Glo kinase assay)
Type: biochemical
Details: CDK9 enzyme activity, average of two independent repeats; for inhibition at 0.01 µM: compound 10 nM, read-out: Inhibition rate at different concentrations (%) 10 nM; for inhibition at 0.1 µM: compound 100 nM, read-out: Inhibition rate at different concentrations (%) 100 nM
Procedure: Experimental method: Recombinant human CDK9/cyclin T1 (Carna bioscience, Cat #04-110) was diluted with dilution buffer (20 mM Tris HCl (pH 7.5), 0.02% Triton X-100, 0.01% BSA, 2 mM DTT, 0.5 mM Na3VO4, 10% Glycerol) to […], the substrates CDK7/9 tide (ThermoFisher, Cat #PV5090) and ATP (sigmaaldrich, Cat #A1852) were diluted with assay buffer (25 mM Tris HCl (pH7.5), 10 mM MgCl2, 0.5 mM EGTA (pH 8), 0.5 mM Na3VO4, 5 mMb-glycerol phosphate, 0.1% Triton X-100, 2.5 mM DTT) to final concentrations of 100 μM and […] respectively, aliquot and set aside. 2 μl of diluted recombinant human CDK9/cyclin T1, 1 μl of test compound, and 2 μl of diluted substrate CDK7/9 tide containing ATP were added to the 384-well plate. […] The positive control was the well in which enzyme and substrate were co-incubated, and the negative control was the well in which dilution buffer and substrate were co-incubated. The inhibition rate was calculated according to the following formula.

T1 sequence (P50750 whole entry): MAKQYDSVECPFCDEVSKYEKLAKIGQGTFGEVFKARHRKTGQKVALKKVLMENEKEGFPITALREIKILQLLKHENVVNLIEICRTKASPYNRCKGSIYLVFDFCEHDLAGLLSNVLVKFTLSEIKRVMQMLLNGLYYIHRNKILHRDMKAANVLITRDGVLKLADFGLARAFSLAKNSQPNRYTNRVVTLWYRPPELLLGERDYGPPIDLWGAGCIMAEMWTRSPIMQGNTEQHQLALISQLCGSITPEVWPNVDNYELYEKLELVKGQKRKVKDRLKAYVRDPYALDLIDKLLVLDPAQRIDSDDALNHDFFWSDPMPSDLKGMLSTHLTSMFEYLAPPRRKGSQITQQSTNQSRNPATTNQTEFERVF
T1 sequence (O60563 whole entry partner): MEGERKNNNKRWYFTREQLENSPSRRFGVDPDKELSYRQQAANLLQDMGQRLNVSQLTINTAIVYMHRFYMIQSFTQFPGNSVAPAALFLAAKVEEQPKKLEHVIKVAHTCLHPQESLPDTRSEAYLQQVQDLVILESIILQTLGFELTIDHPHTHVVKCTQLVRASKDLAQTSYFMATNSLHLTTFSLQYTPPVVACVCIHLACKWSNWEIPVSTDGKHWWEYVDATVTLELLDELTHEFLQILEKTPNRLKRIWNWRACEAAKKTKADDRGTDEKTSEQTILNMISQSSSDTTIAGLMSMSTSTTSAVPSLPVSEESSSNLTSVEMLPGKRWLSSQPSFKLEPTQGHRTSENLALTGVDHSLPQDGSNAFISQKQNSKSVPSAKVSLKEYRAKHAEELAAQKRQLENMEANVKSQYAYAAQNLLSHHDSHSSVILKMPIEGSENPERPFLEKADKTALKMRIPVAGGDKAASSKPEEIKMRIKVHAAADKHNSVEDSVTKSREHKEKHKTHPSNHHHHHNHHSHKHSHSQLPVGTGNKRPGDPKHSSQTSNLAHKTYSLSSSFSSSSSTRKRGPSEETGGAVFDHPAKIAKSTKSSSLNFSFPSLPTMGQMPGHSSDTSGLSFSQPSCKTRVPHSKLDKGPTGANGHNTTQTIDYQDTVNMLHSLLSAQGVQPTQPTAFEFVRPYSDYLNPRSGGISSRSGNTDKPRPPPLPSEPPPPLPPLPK

inhibition at 0.01 µM: 63.7% | inhibition at 0.1 µM: 92.7%
SMILES: CN(C)C1CCC(NC(=O)Nc2cc(-c3cnn4c3CC(C)(C)C4)c(Cl)cn2)CC1 (centres unmarked) [Example 89, 1-(5-chloro-4-(5,5-dimethyl-5,6-dihydro-4H-pyrrolo[1,2-b]pyrazol-3-yl)pyridin-2-yl)-3-((1r,4r)-4-(dimethylamino)cyclohexyl)urea]

inhibition at 0.01 µM: 53% | inhibition at 0.1 µM: 87%
SMILES: CC(=O)NC1CCCC(NC(=O)Nc2cc(-c3cnn4c3CC(C)(C)C4)c(Cl)cn2)C1 (centres unmarked) [Example 79, N-(3-(3-(5-chloro-4-(5,5-dimethyl-5,6-dihydro-4H-pyrrolo[1,2-b]pyrazol-3-yl)pyridin-2-yl)ureido)cyclohexyl)acetamide]

inhibition at 0.01 µM: 44% | inhibition at 0.1 µM: 75%
SMILES: Cc1c(-c2cc(NC(=O)NC3CCC(N)CC3)ncc2Cl)cnn1C (centres unmarked) [Example 42, 1-((1r,4r)-4-aminocyclohexyl)-3-(5-chloro-4-(1,5-dimethyl-1H-pyrazol-4-yl)pyridin-2-yl)urea]

inhibition at 0.01 µM: 39.5% | inhibition at 0.1 µM: 66.3%
SMILES: CC(=O)NC1CCC(NC(=O)Nc2cc(-c3cnn4c3CCC4)c(Cl)cn2)CC1 (centres unmarked) [Example 84, N-((1r,4r)-4-(3-(5-chloro-4-(5,6-dihydro-4H-pyrrolo[1,2-b]pyrazol-3-yl)pyridin-2-yl)ureido)cyclohexyl)acetamide]

inhibition at 0.01 µM: 61% | inhibition at 0.1 µM: 98%
SMILES: COCCN(C)C1CCC(NC(=O)Nc2cc(-c3cnn4c3CC(C)(C)C4)c(Cl)cn2)CC1 (centres unmarked) [Example 90, 1-(5-chloro-4-(5,5-dimethyl-5,6-dihydro-4H-pyrrolo[1,2-b]pyrazol-3-yl)pyridin-2-yl)-3-((1r,4r)-4-((2-methoxyethyl)(methyl)amino)cyclohexyl)urea]

inhibition at 0.01 µM: 54% | inhibition at 0.1 µM: 74%
SMILES: CN(C)CC(=O)NC1CCC(NC(=O)Nc2cc(-c3cnn4c3CC(C)(C)C4)c(Cl)cn2)CC1 (centres unmarked) [Example 48, N-((1r,4r)-4-(3-(5-chloro-4-(5,5-dimethyl-5,6-dihydro-4H-pyrrolo [1,2-b]pyrazol-3-yl)pyridin-2-yl)ureido)cyclohexyl)-2-(dimethylamino)acetamide]

inhibition at 0.01 µM: 44.9% | inhibition at 0.1 µM: 95.2%
SMILES: CN(C)CCNC1CCC(NC(=O)Nc2cc(-c3cnn4c3CC(C)(C)C4)c(Cl)cn2)CC1 (centres unmarked) [Example 56, 1-(5-chloro-4-(5,5-dimethyl-5,6-dihydro-4H-pyrrolo[1,2-b]pyrazol-3-yl)pyridin-2-yl)-3-((1r,4r)-4-((2-(dimethylamino)ethyl)amino)cyclohexyl)urea]

inhibition at 0.01 µM: 48.9% | inhibition at 0.1 µM: 94.3%
SMILES: CC1(C)Cc2c(-c3cc(NC(=O)NC4CCC(O)CC4)ncc3Cl)cnn2C1 (centres unmarked) [Example 45, 1-(5-chloro-4-(5,5-dimethyl-5,6-dihydro-4H-pyrrolo[1,2-b]pyrazol-3-yl)pyridin-2-yl)-3-((1r,4r)-4-hydroxycyclohexyl)urea]

inhibition at 0.01 µM: 40.3% | inhibition at 0.1 µM: 59.8%
SMILES: CC(=O)NC1CCC(NC(=O)Nc2cc(-c3cnn4c3CC(C)(C)C4)c(C3CC3)cn2)CC1 (centres unmarked) [Example 53, N-((1r,4r)-4-(3-(4-(5,5-dimethyl-5,6-dihydro-4H-pyrrolo[1,2-b]pyrazol-3-yl)-5-cyclopropylpyridin-2-yl)ureido)cyclohexyl)acetamide]

inhibition at 0.01 µM: 58.9% | inhibition at 0.1 µM: 93.7%
SMILES: CC1(C)Cc2c(-c3cc(NC(=O)NC4CCC(N5CCOCC5)CC4)ncc3Cl)cnn2C1 (centres unmarked) [Example 92, 1-(5-chloro-4-(5,5-dimethyl-5,6-dihydro-4H-pyrrolo[1,2-b]pyrazol-3-yl)pyridin-2-yl)-3-((1r, 4r)-4-morpholinylcyclohexyl)urea]

inhibition at 0.01 µM: 25% | inhibition at 0.1 µM: 91%
SMILES: CC1(C)Cc2c(-c3cc(NC(=O)NC4CCCC(NC(=O)OC(C)(C)C)C4)ncc3Cl)cnn2C1 (centres unmarked) [Example 76, tert-butyl (3-(3-(5-chloro-4-(5,5-dimethyl-5,6-dihydro-4H-pyrrolo[1,2-b]pyrazol-3-yl)pyridin-2-yl)ureido)cyclohexyl)carbamate]

inhibition at 0.01 µM: 40.2% | inhibition at 0.1 µM: 68.3%
SMILES: CC(=O)NC1CCC(NC(=O)Nc2cc(-c3cnn4c3CN(C)CC4)c(Cl)cn2)CC1 (centres unmarked) [Example 83, N-((1r,4r)-4-(3-(5-chloro-4-(5-methyl-4,5,6,7-tetrahydropyrazolo[1,5-a]pyrazin-3-yl)pyridin-2-yl)ureido)cyclohexyl)acetamide]

inhibition at 0.01 µM: 49% | inhibition at 0.1 µM: 87.3%
SMILES: CC(C)NC1CCC(NC(=O)Nc2cc(-c3cnn4c3CC(C)(C)C4)c(Cl)cn2)CC1 (centres unmarked) [Example 60, 1-(5-chloro-4-(5,5-dimethyl-5,6-dihydro-4H-pyrrolo[1,2-b]pyrazol-3-yl)pyridin-2-yl)-3-((1r,4r)-4-(isopropylamino)cyclohexyl)urea]

inhibition at 0.01 µM: 38.1% | inhibition at 0.1 µM: 70.2%
SMILES: COc1cc(F)ccc1-c1ccnc(NC(=O)NC2CCC(NC(C)=O)CC2)n1 (centres unmarked) [Example 41, N-((1r,4r)-4-(3-(4-(4-fluoro-2-methoxyphenyl)pyrimidin-2-yl)ureido)cyclohexyl)acetamide]

inhibition at 0.01 µM: 43.8% | inhibition at 0.1 µM: 75.3%
SMILES: CC(=O)NC1CCC(NC(=O)Nc2cc(-n3cnc(C4CC4)c3)c(Cl)cn2)CC1 (centres unmarked) [Example 87, N-((1r,4r)-4-(3-(5-chloro-4-(4-cyclopropyl-1H-imidazol-1-yl)pyridin-2-yl)ureido)cyclohexyl)acetamide]

Continued, compound first:

SMILES: COCCNC1CCC(NC(=O)Nc2cc(-c3cnn(C)c3)ccn2)CC1 (centres unmarked) [Example 14, 1-((1r,4r)-4-((2-methoxyethyl)amino)cyclohexyl)-3-(4-(1-methyl-1H-pyrazol-4-yl)pyridine-2-yl) urea]
inhibition at 0.01 µM: -7.6% | inhibition at 0.1 µM: 72.3%

SMILES: COc1cc(F)ccc1-c1ccnc(NC(=O)NC2CCCNCC2)c1 (centres unmarked) [Example 37, 1-(azepan-4-yl)-3-(4-(4-fluoro-2-methoxyphenyl)pyridin-2-yl)urea]
inhibition at 0.01 µM: 10% | inhibition at 0.1 µM: 60%

SMILES: COc1cc(F)ccc1-c1cc(NC(=O)NC2CCC(NC(C)=O)CC2)ncc1C#N (centres unmarked) [Example 32, N-((1r,4r)-4-(3-(5-cyano-4-(4-fluoro-2-methoxyphenyl)pyridin-2-yl)ureido)cyclohexyl)acetamide]
inhibition at 0.01 µM: 18.1% | inhibition at 0.1 µM: 59.8%

SMILES: CC(C)c1c2cc(-c3ccnc(NC(=O)NC4CCC(N)CC4)c3)ccc2nn1C (centres unmarked) [Example 9, 1-((1r,4r)-4-aminocyclohexyl)-3-(4-(3-isopropyl-2-methyl-2H-indazol-5-yl)pyridin-2-yl)urea]
inhibition at 0.01 µM: 23% | inhibition at 0.1 µM: 55.1%

SMILES: COc1cc(F)ccc1-c1ccnc(NC(=O)NC2CC(O)C2)c1 (centres unmarked) [Example 36, 1-(4-(4-fluoro-2-methoxyphenyl)pyridin-2-yl)-3((1r,3r)-3-hydroxycyclobutyl)urea]
inhibition at 0.01 µM: 16.5% | inhibition at 0.1 µM: 62.8%

SMILES: COCCNCCCNC(=O)Nc1cc(-c2ccc(F)cc2OC)ccn1 [Example 34, 1-(4-(4-fluoro-2-methoxyphenyl)pyridin-2-yl)-3-(3-((2-methoxyethyl)amino)propyl)urea]
inhibition at 0.01 µM: 7% | inhibition at 0.1 µM: 54%

SMILES: COCCNC1CCC(NC(=O)Nc2cc(-c3ccc(F)cc3OC)c(C)cn2)CC1 (centres unmarked) [Example 29, 1-(4-(4-fluoro-2-methoxyphenyl)-5-methylpyridin-2-yl)-3-((1r,4r)-4-((2-methoxyethyl)amino)cyclohexyl) urea]
inhibition at 0.01 µM: 19.4% | inhibition at 0.1 µM: 57%

SMILES: CC(=O)NC1CCC(NC(=O)Nc2cc(-c3cnn4c3CC(C)(C)C4)ccn2)CC1 (centres unmarked) [Example 16, 1-((1r,4r)-4-(3-(4-(5,5-dimethyl-5,6-dihydro-4H-pyrrolo[1,2-b]pyrazol-3-yl)pyridin-2-yl)ureido)cyclohexyl)acetamide]
inhibition at 0.01 µM: 72% | inhibition at 0.1 µM: 95.7%

SMILES: CC1(C)Cc2c(-c3ccnc(NC(=O)NC4CCC(N)CC4)c3)cnn2C1 (centres unmarked) [Example 15, 1-((1r,4r)-4-aminocyclohexyl)-3-(4-(5,5-dimethyl-5,6-dihydro-4H-pyrrole [1,2-b]pyrazole-3-yl)pyridin-2-yl) urea]
inhibition at 0.01 µM: 51.1% | inhibition at 0.1 µM: 91.5%

SMILES: COCCNC1CCC(NC(=O)Nc2cc(-c3ccc(F)cc3OC)c(Cl)cn2)CC1 (centres unmarked) [Example 19, 1-(5-chloro-4-(4-fluoro-2-methoxyphenyl)pyridin-2-yl)-3-((1r,4r)-4-((2-methoxyethyl)amino)cyclohexyl)urea]
inhibition at 0.01 µM: 57.1% | inhibition at 0.1 µM: 87.4%

SMILES: COc1cc(F)ccc1-c1ccnc(NC(=O)NC2CCC(NC(C)=O)CC2)c1 (centres unmarked) [Example 4, N-((1r,4r)-4-(3-(4-(4-fluoro-2-methoxyphenyl)pyridin-2-yl)ureido)cyclohexyl)acetamide]
inhibition at 0.01 µM: 45.1% | inhibition at 0.1 µM: 93.2%

SMILES: COc1cc(F)ccc1-c1cc(NC(=O)NC2CCC(N)CC2)ncc1Cl (centres unmarked) [Example 18, 1-((1r,4r)-4-aminocyclohexyl)-3-(5-chloro-4-(4-fluoro-2-methoxyphenyl)pyridin-2-yl)urea]
inhibition at 0.01 µM: 84% | inhibition at 0.1 µM: 86%

SMILES: COc1cc(F)ccc1-c1ccnc(NC(=S)NC2CCC(N)CC2)c1 (centres unmarked) [Example 38, 1-((1r,4r)-4-aminocyclohexyl)-3-(4-(4-fluoro-2-methoxyphenyl)pyridin-2-yl)thiourea]
inhibition at 0.01 µM: 51% | inhibition at 0.1 µM: 27%
